Where two headings read alike, the source gives them in different places.
Key:
[1] = tested on: virus de la maladie de Talfan; test: Virucidal activity of mixtures, drop of viral titre, Example 1; type: cell-based; conditions: 30 min, 20°C, eau dure à 30°f + matières organiques
Description: Pour déterminer l'activité virucide de l'association susmentionnée, on a préparé différents mélanges monoperoxyphtalate de magnésium/cumène sulfonate de sodium/acide malique et on a analysé l'efficacité de ces différents mélanges sur le virus de la maladie de Talfan, ce en appliquant les conditions expérimentales qui correspondent aux exigences en matière d'homologation d'un désinfectant à usage agricole [temps de contact 30 min. - température 20°C - conditions de saleté : eau dure à 30°f + matières organiques (albumine 1 % + extrait de levure 1 %)].

[2] = tested on: Enterococcus hirae (CIP 58 55); conditions: temps de contact 5 min, 20°C
Description: (§1) Conformément à l'invention, on a vérifié l'activité bactéricide du monoperoxyphtalate de magnésium vis-à-vis de souches bactériennes fréquentes dans les élevages, à savoir les souches suivantes : Pseudomonas aeruginosa, Escherichia coli, Staphylococcus aureus et Enteroccocus hirae, ce en appliquant les conditions expérimentales qui répondent aux exigences d'homologation d'un désinfectant à usage agricole qui sont définies par la norme NF-T 72-301 (temps de contact 5 min. température 20°C, conditions de saleté : eau dure à 30°f, matière organique = albumine 1 % + extraits de levures 1 %).
(§2) Il est à noter que conformément aux exigences en matière d'homologation (norme NF-T 72-171) une substance est considérée comme active à une concentration d'emploi donnée lorsqu'elle permet de réduire le titre bactérien d'au moins 10^5, soit 5 Log.

[3] = tested on: Escherichia coli (CIP 53 154); conditions: temps de contact 5 min, 20°C, conditions de saleté
Description: as §1, §2

[4] = tested on: Pseudomonas aeruginosa (CIP A22); conditions: temps de contact 5 min, 20°C, conditions de saleté
Description: as §1, §2

[5] = tested on: Staphylococcus aureus (CIP 53 154); conditions: temps de contact 5 min, 20°C
Description: as §1, §2

[6] = tested on: Pseudomonas aeruginosa, Escherichia coli, Staphylococcus aureus et Enteroccocus hirae; test: Bactericidal activity on all four tested strains (summary); type: cell-based; conditions: conditions requises (NF-T 72-301)
Description: as §1, §2

[7] = tested on: Enteroccocus hirae (CIP 58 55)
Description: (§3) On a analysé l'activité bactéricide des produits testés sur les deux souches bactériennes Pseudomonas aeruginosa (CIP A 22) et Enteroccocus hirae (CIP 58 55).
(§4) On a ainsi déterminé les concentrations minimales bactéricides (CMB), d'une part, de monoperoxyphtalate de magnésium (MMPP) et de mélange Ml seul et, d'autre part, de leur association, ce dans des solutions d'eau distillée, d'eau dure à 30°f et dans les conditions de saleté prévues par les normes correspondant aux exigences en matière d'homologation d'un désinfectant à usage agricole (matières organiques : albumine 1 % + extrait de levures 1 %).

[8] = tested on: Pseudomonas aeruginosa (CIP A 22)
Description: as §3, §4

[9] = tested on: virus de la maladie de Talfan
Description: Selon les normes en vigueur, une substance est considérée comme virucide lorsqu'elle permet de réduire le titre viral d'au moins 10^3, c'est-à-dire de 3 Log.
Ce test a été effectué sur le virus de la maladie de Talfan (enterovirus non enveloppé, à ARN).

[10] = 20°C; cited from earlier work
[11] = tested on: rat; conditions: Toxicité aiguë par voie orale; cited from earlier work
[12] = tested on: lapin; conditions: Toxicité aiguë par voie dermique; cited from earlier work
[13] = tested on: rat; conditions: Toxicité aiguë par inhalation; cited from earlier work
[14] = tested on: rats de laboratoire; conditions: Toxicité moyenne; cited from earlier work
[15] = test de AMES; cited from earlier work
[16] = tested on: truite arc en ciel; conditions: cited from earlier work
[17] = conditions de saleté (eau dure à 30°f, albumine 1 % + extraits de levures 1 %)

O=C(O)CC(O)C(=O)O (stereo not drawn) [Ac. Malique, acide malique]
Chute du titre viral (exprimé en Log) ([1]; Ac. Malique 3000 ppm): 0,33 Log

CC(C)c1ccc(S(=O)(=O)[O-])cc1.[Na+] [Cumène sulfonate de sodium, cumène sulfonate de sodium]
Chute du titre viral (exprimé en Log) ([1]; Cumène sulfonate de sodium 1500 ppm): 0 Log

O=C(O)c1ccccc1C(=O)OO [monoperoxyphtalate de magnésium]
Equivalence Avox ([2]; conditions de saleté): ≥ 300 ppm
Concentration active en monoperoxyphtalate de magnésium (réduction > 10^5 Log) [2, 17]: ≥ 5 000 ppm
Equivalence Avox [3]: ≥ 150 ppm
Equivalence Avox [4]: ≥ 300 ppm
Equivalence Avox ([5]; conditions de saleté): ≥ 450 ppm
Concentration active en monoperoxyphtalate de magnésium (réduction > 10^5 Log) [5, 17]: ≥ 7 500 ppm
concentration efficace sur les souches testées [6]: 7 500 ppm
concentration efficace sur les souches testées, en oxygène libre ([6]; oxygène libre): 450 ppm
concentrations minimales bactéricides (CMB) ([7]; Eau distillée): 800 ppm
concentrations minimales bactéricides (CMB) ([7]; Eau dure 30°F): 800 ppm
concentrations minimales bactéricides (CMB) ([8]; Eau distillée): 800 ppm
concentrations minimales bactéricides (CMB) ([8]; Eau dure 30°F): 800 ppm
Chute du titre viral (exprimé en Log) ([1]; MMPP 1000 ppm): 2,6 Log
Chute du titre viral (exprimé en Log) ([1]; MMPP 1500 ppm): 3,7 Log
concentration à partir de laquelle activité virucide [9]: ≥ 1 500 ppm
soluble en milieu aqueux [10]: 80 g/L
LD50 (voie orale, rat) [11]: 2300 MG/kg de poids vif
LD50 (voie dermique, lapin) [12]: 2000 mg/kg de poids vif
LD50 (voie nasale, rat) [13]: 0,84 mg/l
Effets toxiques (alimentation de rats de laboratoire pendant 90 jours) [14]: > 620 mg/kg de poids vif
Propriétés Mutagenes [15]: Non mutagène selon le test de AMES (norme n° ...)
LC50 (7 jours, truite arc en ciel) [16]: 38,5 mg :l
